From PubChem BioAssay (NCI)
Several values for one entry are separate records, joined by “and”; a condition that tells them apart may be missing. Identical values can stand only once.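 1) Cells in 96-well plates. 2) Compound, 48 h, 5 concentrations. 3) Linear interpolation between surrounding doses. 4) Unreached endpoint = highest concentration. GI50 is the concentration that inhibits growth by half. Definition used: TGI = concentration required for complete inhibition of growth.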

Assays:
Experiment in all cases: growth of human tumour cells (NCI), 48 h
HT29 colon = test system: HT29 colon
MDA-N = test system: MDA-N
A549 NSCLC = test system: A549 NSCLC
OVCAR-8 ovarian = test system: OVCAR-8 ovarian
NCI-H226 lung = test system: NCI-H226 lung
MDA-MB-435 = test system: MDA-MB-435
SF-295 CNS = test system: SF-295 CNS
SN12C renal = test system: SN12C renal
RXF 393 renal = test system: RXF 393 renal
DMS 273 small cell lung = test system: DMS 273 small cell lung

CCC(=O)Nc1ccc2c(c1)CN1C(=O)c3ccccc3C1=N2
GI50 (HT29 colon): > 100 µM
TGI (HT29 colon): > 100 µM
GI50 (MDA-N): > 100 µM
TGI (MDA-N): > 100 µM
GI50 (A549 NSCLC): > 100 µM
TGI (A549 NSCLC): > 100 µM
GI50 (OVCAR-8 ovarian): > 100 µM
TGI (OVCAR-8 ovarian): > 100 µM
GI50 (NCI-H226 lung): > 100 µM
TGI (NCI-H226 lung): > 100 µM
GI50 (MDA-MB-435): > 100 µM
TGI (MDA-MB-435): > 100 µM
GI50 (SF-295 CNS): > 100 µM
TGI (SF-295 CNS): > 100 µM
GI50 (SN12C renal): > 100 µM
TGI (SN12C renal): > 100 µM

N#Cc1c(C(N)=O)ncn1Cc1ccccc1
TGI (HT29 colon): > 100 µM
TGI (A549 NSCLC): > 100 µM
TGI (OVCAR-8 ovarian): > 100 µM
TGI (NCI-H226 lung): > 100 µM
TGI (RXF 393 renal): > 100 µM
TGI (DMS 273 small cell lung): > 100 µM
TGI (SF-295 CNS): > 100 µM
TGI (SN12C renal): > 100 µM

O=C1CC(c2ccccc2)NCN1 (stereo not drawn)
TGI (HT29 colon): > 100 µM
TGI (A549 NSCLC): > 100 µM
TGI (OVCAR-8 ovarian): > 100 µM
TGI (NCI-H226 lung): > 100 µM
TGI (RXF 393 renal): > 100 µM
TGI (DMS 273 small cell lung): > 100 µM
TGI (SF-295 CNS): > 100 µM
TGI (SN12C renal): > 100 µM

CCC12CC[C@H](C#N)N3CCc4c(n(c5ccccc45)C(=O)C1)C32 (stereo partly drawn)
TGI (HT29 colon): 31.3 µM
TGI (A549 NSCLC): 61.3 µM
TGI (OVCAR-8 ovarian): 57.5 µM
TGI (RXF 393 renal): 29.6 µM
TGI (DMS 273 small cell lung): 19 µM
TGI (SF-295 CNS): 31.2 µM
TGI (SN12C renal): 37.8 µM

COc1ccc(/C(Cl)=C(\C=O)c2cc(OC)c(OC)c(OC)c2)cc1OC
TGI (HT29 colon): 87.7 µM
TGI (MDA-N): > 100 µM
TGI (A549 NSCLC): > 100 µM
TGI (OVCAR-8 ovarian): > 63.5 µM
TGI (NCI-H226 lung): 70.6 µM
TGI (RXF 393 renal): > 100 µM
TGI (MDA-MB-435): > 100 µM
TGI (DMS 273 small cell lung): > 100 µM
TGI (SF-295 CNS): > 100 µM
TGI (SN12C renal): > 100 µM

O=C1NC(=O)[C@H]2C3C=CC([C@@H]12)[C@@H]1C(=O)NC(=O)[C@H]31
TGI (MDA-N): > 100 µM
TGI (A549 NSCLC): > 100 µM
TGI (OVCAR-8 ovarian): > 100 µM
TGI (NCI-H226 lung): > 100 µM
TGI (RXF 393 renal): > 100 µM
TGI (MDA-MB-435): > 100 µM
TGI (SF-295 CNS): > 100 µM
TGI (SN12C renal): > 100 µM

NC1=NN(c2ccccc2)C(=O)C1C(=O)C(=O)Nc1cccc(C(F)(F)F)c1 (stereo not drawn)
TGI (HT29 colon): > 100 µM
TGI (A549 NSCLC): > 100 µM
TGI (OVCAR-8 ovarian): > 100 µM
TGI (NCI-H226 lung): > 100 µM
TGI (DMS 273 small cell lung): > 100 µM
TGI (SF-295 CNS): > 100 µM
TGI (SN12C renal): > 100 µM

CC1(C)CC2=NOS3=C2C(=NO3)C1c1ccccn1 (stereo not drawn)
TGI (HT29 colon): > 100 µM
TGI (MDA-N): 92.9 µM
TGI (A549 NSCLC): > 100 µM
TGI (OVCAR-8 ovarian): > 100 µM
TGI (MDA-MB-435): 39 µM
TGI (SF-295 CNS): > 100 µM
TGI (SN12C renal): > 100 µM

O=C(O/N=C1/CCC/C1=C\c1ccccc1)c1ccccc1
TGI (HT29 colon): > 100 µM
TGI (A549 NSCLC): > 100 µM
TGI (OVCAR-8 ovarian): > 100 µM
TGI (NCI-H226 lung): > 100 µM
TGI (RXF 393 renal): > 100 µM
TGI (DMS 273 small cell lung): > 100 µM
TGI (SF-295 CNS): > 100 µM
TGI (SN12C renal): > 100 µM

O[C@H]1[C@H]2[C@H](O)CCCN2C[C@H]1O
TGI (HT29 colon): > 100 µM
TGI (A549 NSCLC): > 100 µM
TGI (OVCAR-8 ovarian): > 100 µM
TGI (NCI-H226 lung): > 100 µM
TGI (RXF 393 renal): > 100 µM
TGI (DMS 273 small cell lung): > 100 µM
TGI (SF-295 CNS): > 100 µM
TGI (SN12C renal): > 100 µM

CC(=O)[CH-]C(C)=O.CC(=O)[CH-]C(C)=O.CC(=O)[CH-]C(C)=O.[Cl-].[Hf+4]
GI50 (HT29 colon): > 100 µM
TGI (HT29 colon): > 100 µM
GI50 (A549 NSCLC): > 100 µM
TGI (A549 NSCLC): > 100 µM
GI50 (OVCAR-8 ovarian): > 100 µM
TGI (OVCAR-8 ovarian): > 100 µM
GI50 (NCI-H226 lung): > 100 µM
TGI (NCI-H226 lung): > 100 µM
GI50 (RXF 393 renal): > 100 µM
TGI (RXF 393 renal): > 100 µM
GI50 (DMS 273 small cell lung): > 100 µM
TGI (DMS 273 small cell lung): > 100 µM
GI50 (SF-295 CNS): > 100 µM
TGI (SF-295 CNS): > 100 µM
GI50 (SN12C renal): > 100 µM
TGI (SN12C renal): > 100 µM

C[C@]12CC[C@@H]3c4ccc(OCC(=O)O)cc4CC[C@H]3[C@@H]1CCC2=O
TGI (HT29 colon): > 100 µM
TGI (MDA-N): > 100 µM
TGI (A549 NSCLC): > 100 µM
TGI (OVCAR-8 ovarian): > 100 µM
TGI (NCI-H226 lung): > 100 µM
TGI (RXF 393 renal): > 100 µM
TGI (MDA-MB-435): > 100 µM
TGI (SF-295 CNS): > 100 µM
TGI (SN12C renal): > 100 µM

C/C(=N\[N+](C)(C)C)C(c1ccccc1)C1(c2ccccc2)C(c2ccccc2)=C1c1ccccc1 (stereo not drawn)
TGI (HT29 colon): > 100 µM
TGI (A549 NSCLC): > 100 µM
TGI (OVCAR-8 ovarian): > 100 µM
TGI (NCI-H226 lung): 93.4 µM
TGI (RXF 393 renal): 73 µM
TGI (DMS 273 small cell lung): > 100 µM
TGI (SF-295 CNS): > 100 µM
TGI (SN12C renal): > 100 µM

Cn1cc(C(=O)/C(Cl)=C(\Cl)C(=O)O)c2ccccc21
TGI (HT29 colon): > 100 µM
TGI (A549 NSCLC): > 100 µM
TGI (OVCAR-8 ovarian): > 100 µM
TGI (NCI-H226 lung): > 100 µM
TGI (RXF 393 renal): > 100 µM
TGI (DMS 273 small cell lung): > 100 µM
TGI (SF-295 CNS): > 100 µM

CC1=Cc2cc3[n-]c(cc4nc(cc5[n-]c(cc1n2)c(C)c5CCC(=O)O)C(CCC(=O)O)=C4C)cc3C.[Cu+2]
GI50 (HT29 colon): > 100 µM
TGI (HT29 colon): > 100 µM
GI50 (MDA-N): 62.4 µM
TGI (MDA-N): > 100 µM
GI50 (A549 NSCLC): > 1 µM and 70.9 µM
TGI (A549 NSCLC): > 100 µM
GI50 (OVCAR-8 ovarian): > 1 µM and 19.6 µM
TGI (OVCAR-8 ovarian): > 1 µM and 54.7 µM
GI50 (NCI-H226 lung): > 1 µM and 62 µM
TGI (NCI-H226 lung): > 87.2 µM
GI50 (RXF 393 renal): > 1 µM and 15.4 µM
TGI (RXF 393 renal): > 1 µM and 33.9 µM
GI50 (MDA-MB-435): 55.1 µM
TGI (MDA-MB-435): > 100 µM
GI50 (DMS 273 small cell lung): > 39.8 µM
TGI (DMS 273 small cell lung): > 55.9 µM
GI50 (SF-295 CNS): 51.3 µM
TGI (SF-295 CNS): > 96.9 µM
GI50 (SN12C renal): > 1 µM and 57.7 µM
TGI (SN12C renal): > 100 µM

COc1ccc(C(=O)O)c2c(=O)c3ccccc3[nH]c12
TGI (HT29 colon): > 100 µM
TGI (A549 NSCLC): > 100 µM
TGI (OVCAR-8 ovarian): > 100 µM
TGI (NCI-H226 lung): > 100 µM
TGI (RXF 393 renal): > 100 µM
TGI (DMS 273 small cell lung): > 100 µM
TGI (SF-295 CNS): > 100 µM
TGI (SN12C renal): > 100 µM

CO/C=C/c1cc2c(cc1C(OC)OC)OCO2
TGI (HT29 colon): > 100 µM
TGI (A549 NSCLC): > 100 µM
TGI (OVCAR-8 ovarian): > 100 µM
TGI (NCI-H226 lung): > 100 µM
TGI (RXF 393 renal): > 100 µM
TGI (DMS 273 small cell lung): > 100 µM
TGI (SN12C renal): > 100 µM

CCC[CH2][Sn]([CH2]CCC)([O]C(=O)c1cccc(F)c1F)[O][Sn]([CH2]CCC)([CH2]CCC)[O]C(=O)c1cccc(F)c1F
GI50 (HT29 colon): 0.812 µM
TGI (HT29 colon): 2.07 µM
GI50 (MDA-N): 0.223 µM
TGI (MDA-N): 1.16 µM
GI50 (A549 NSCLC): 1.78 µM
TGI (A549 NSCLC): 3.44 µM
GI50 (OVCAR-8 ovarian): 0.285 µM
TGI (OVCAR-8 ovarian): 1.16 µM
GI50 (NCI-H226 lung): 0.317 µM
TGI (NCI-H226 lung): 0.851 µM
GI50 (RXF 393 renal): 0.0216 µM
TGI (RXF 393 renal): 0.105 µM
GI50 (MDA-MB-435): 0.13 µM
TGI (MDA-MB-435): 1.09 µM
GI50 (DMS 273 small cell lung): 0.301 µM
TGI (DMS 273 small cell lung): 1.51 µM
GI50 (SF-295 CNS): 0.919 µM
TGI (SF-295 CNS): 2.19 µM
GI50 (SN12C renal): 0.293 µM
TGI (SN12C renal): 1.15 µM

c1cncc(-c2cc(-c3cc(-c4cccnc4)n[nH]3)[nH]n2)c1
TGI (HT29 colon): > 100 µM
TGI (MDA-N): > 100 µM
TGI (A549 NSCLC): > 100 µM
TGI (OVCAR-8 ovarian): > 100 µM
TGI (NCI-H226 lung): > 100 µM
TGI (RXF 393 renal): > 100 µM
TGI (MDA-MB-435): > 100 µM
TGI (SF-295 CNS): > 100 µM
TGI (SN12C renal): > 100 µM

OCC1OC(O)C(N=Cc2ccc3c(c2)OCO3)C(O)C1O (stereo not drawn)
TGI (HT29 colon): > 100 µM
TGI (MDA-N): > 100 µM
TGI (A549 NSCLC): > 100 µM
TGI (OVCAR-8 ovarian): > 100 µM
TGI (NCI-H226 lung): > 100 µM
TGI (RXF 393 renal): > 100 µM
TGI (MDA-MB-435): > 100 µM
TGI (SF-295 CNS): > 100 µM
TGI (SN12C renal): > 100 µM

COC1=CC(C)C2C[C@H]3O[C@H](O)C[C@H]4C(C)C(=O)C(O)C([C@@]2(C)C1=O)[C@@]34C (stereo partly drawn)
TGI (HT29 colon): > 100 µM
TGI (A549 NSCLC): > 100 µM
TGI (OVCAR-8 ovarian): > 100 µM
TGI (NCI-H226 lung): > 100 µM
TGI (RXF 393 renal): > 100 µM
TGI (DMS 273 small cell lung): > 100 µM
TGI (SF-295 CNS): > 100 µM
TGI (SN12C renal): > 100 µM
